# Experimental data: ChEMBL document CHEMBL1129505, “Time-dependent inactivation of aromatase by 6-alkylandrosta-1,4-diene-3,17-diones. Effects of length and configuration of 6-alkyl group” (J Med Chem, 1996)
# Experiments:
# [1] = biological target: T1, Aromatase (Homo sapiens, UniProt P11511); assay: Inactivation constant (Ki) for time-dependent inactivation of Cytochrome P450 19A1; NT= time-dependent inactivation not observed
# T1 sequence (P11511 whole entry): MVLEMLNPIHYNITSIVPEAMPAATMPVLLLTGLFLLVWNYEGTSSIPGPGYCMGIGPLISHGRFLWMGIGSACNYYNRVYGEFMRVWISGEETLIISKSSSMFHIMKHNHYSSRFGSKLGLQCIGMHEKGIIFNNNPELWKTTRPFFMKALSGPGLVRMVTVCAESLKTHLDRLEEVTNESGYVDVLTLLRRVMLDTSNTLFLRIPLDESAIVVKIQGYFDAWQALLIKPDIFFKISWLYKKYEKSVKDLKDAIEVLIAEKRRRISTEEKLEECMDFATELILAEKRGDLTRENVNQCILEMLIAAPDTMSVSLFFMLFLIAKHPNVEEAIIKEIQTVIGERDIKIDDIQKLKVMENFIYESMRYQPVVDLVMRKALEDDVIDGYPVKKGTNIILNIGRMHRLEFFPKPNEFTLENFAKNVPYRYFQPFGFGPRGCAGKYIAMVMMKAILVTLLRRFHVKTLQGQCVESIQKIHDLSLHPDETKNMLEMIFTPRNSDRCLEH
# [2] = biological target: T1, Aromatase; assay: In vitro inhibitory activity against Cytochrome P450 19A1 in human placental microsomes; design: species or system Placenta
# [3] = biological target: T1, Aromatase; assay: Catalytic rate constant for time dependent inactivation of Cytochrome P450 19A1; NT= time-dependent inactivation not observed
# [4] = biological target: T1, Aromatase; assay: Apparent inhibition constant (Ki) Cytochrome P450 19A1; settings: read-out: Ki app
# [5] = biological target: T1, Aromatase; assay: Inactivation constant (Ki) for time-dependent inactivation of Cytochrome P450 19A1
# [6] = biological target: T2, CYP19A1 (aromatase) (Homo sapiens, UniProt P11511); assay: Catalytic rate constant for time dependent inactivation of Cytochrome P450 19A1
# T2 sequence (P11511 whole entry): T1 sequence (P11511 whole entry)
SMILES,Ki [1],IC50 [2] [nM],K inact [3],Ki [4] [nM],Ki [5] [nM],kinact [6] [s⁻¹]
CCCCCC[C@@H]1CC2C(CCC3(C)C(=O)CCC23)C2(C)C=CC(=O)C=C12 (stereo not given in full),Inactivation not observed,76,Inactivation not observed,8,–,–
CCCCCC[C@H]1CC2C(CCC3(C)C(=O)CCC23)C2(C)C=CC(=O)C=C12 (stereo not given in full),–,280,–,25,650,0.000833
CCCCC[C@H]1CC2C(CCC3(C)C(=O)CCC23)C2(C)C=CC(=O)C=C12 (stereo not given in full),Inactivation not observed,140,Inactivation not observed,11,–,–
CCCCCCC[C@H]1CC2C(CCC3(C)C(=O)CCC23)C2(C)C=CC(=O)C=C12 (stereo not given in full),Inactivation not observed,250,Inactivation not observed,20,–,–
CCCCCCC[C@@H]1CC2C(CCC3(C)C(=O)CCC23)C2(C)C=CC(=O)C=C12 (stereo not given in full),Inactivation not observed,60,Inactivation not observed,7.8,–,–
C[C@H]1CC2C(CCC3(C)C(=O)CCC23)C2(C)C=CC(=O)C=C12 (stereo not given in full),–,–,–,–,–,0.0008
CCCCC[C@@H]1CC2C(CCC3(C)C(=O)CCC23)C2(C)C=CC(=O)C=C12 (stereo not given in full),Inactivation not observed,54,Inactivation not observed,5,–,–
CCC[C@@H]1CC2C(CCC3(C)C(=O)CCC23)C2(C)C=CC(=O)C=C12 (stereo not given in full),Inactivation not observed,60,Inactivation not observed,7,–,–
CC[C@@H]1CC2C(CCC3(C)C(=O)CCC23)C2(C)C=CC(=O)C=C12 (stereo not given in full),Inactivation not observed,54,Inactivation not observed,4.7,–,–
C[C@@H]1CC2C(CCC3(C)C(=O)CCC23)C2(C)C=CC(=O)C=C12 (stereo not given in full),–,–,–,–,–,0.00102
CCC[C@H]1CC2C(CCC3(C)C(=O)CCC23)C2(C)C=CC(=O)C=C12 (stereo not given in full),–,270,–,22,339,0.000733
CCCC[C@@H]1CC2C(CCC3(C)C(=O)CCC23)C2(C)C=CC(=O)C=C12 (stereo not given in full),Inactivation not observed,180,Inactivation not observed,14,–,–
CC[C@H]1CC2C(CCC3(C)C(=O)CCC23)C2(C)C=CC(=O)C=C12 (stereo not given in full),–,250,–,19,196,0.00108
CCCC[C@H]1CC2C(CCC3(C)C(=O)CCC23)C2(C)C=CC(=O)C=C12 (stereo not given in full),–,200,–,16,571,0.000483
